Data as given in US12187662B2, “FOXM1 inhibitor compositions and methods of using the same” (The Board of Trustees of the University of Illinois, priority 2018, dated 2025).

Columns and labels:
FOXM1 protein = biological target: T1, FOXM1 protein (Homo sapiens, UniProt Q08050); assay: Direct binding of Fl-NB-72 to FOXM1 by tr-FRET; details: direct tr-FRET titration
T1 construct: a terbium donor was attached to purified full length FOXM1 through a streptavidin-biotin linker
T1 sequence (Q08050 1-763): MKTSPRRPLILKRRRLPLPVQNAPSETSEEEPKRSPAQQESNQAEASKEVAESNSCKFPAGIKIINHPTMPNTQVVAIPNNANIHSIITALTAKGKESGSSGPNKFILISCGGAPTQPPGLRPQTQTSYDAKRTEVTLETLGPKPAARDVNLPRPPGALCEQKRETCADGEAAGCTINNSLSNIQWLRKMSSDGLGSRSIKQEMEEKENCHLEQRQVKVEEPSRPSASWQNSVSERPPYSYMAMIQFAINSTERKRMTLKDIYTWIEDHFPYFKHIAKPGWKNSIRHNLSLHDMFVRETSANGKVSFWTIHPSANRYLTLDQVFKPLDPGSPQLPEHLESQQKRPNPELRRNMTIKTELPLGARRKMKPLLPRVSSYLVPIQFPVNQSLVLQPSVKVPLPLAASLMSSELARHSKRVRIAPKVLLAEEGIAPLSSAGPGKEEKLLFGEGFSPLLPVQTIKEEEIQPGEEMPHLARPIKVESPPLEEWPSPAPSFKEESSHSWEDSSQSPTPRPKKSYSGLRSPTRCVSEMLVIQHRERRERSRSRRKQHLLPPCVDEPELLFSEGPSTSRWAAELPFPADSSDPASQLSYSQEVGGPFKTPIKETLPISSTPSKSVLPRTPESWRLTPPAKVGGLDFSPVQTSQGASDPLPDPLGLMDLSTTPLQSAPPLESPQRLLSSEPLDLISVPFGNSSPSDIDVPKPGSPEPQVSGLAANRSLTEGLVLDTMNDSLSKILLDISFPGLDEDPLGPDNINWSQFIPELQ
Procedure: Direct binding experiments for determination of Kd for Fl-NB-72. […] The Biotin-FOXM1 was diluted to a concentration of 3×(5 nM+1.25 nM SaTb). 5 μL of each of these were mixed on a black Molecular Devices microtiter plate with 5 μL of FRET buffer, so that each component was diluted 3×. Each point was prepared in duplicate, mixed, and incubated for 1 h at room temperature, in the dark. tr-FRET was measured on a Victor X5 microtiter plate reader with settings as given above.

[1] = Pharmacokinetic studies in mice after single s.c. or oral dose
Procedure: For s.c. injection, each compound was dissolved in DMSO and then mixed with corn oil for a total injection volume of 100 μL (10% DSMO+90% corn oil) per mouse. For oral gavage, compounds were administered in a 200 μL formulation of 9/0.5/0.5/90 parts of PEG400/Tween80/Povidone/0.5% Carboxymethylcellulose. […] Compounds were quantified by LC-MS/MS at the University of Illinois Metabolomics Core Facility. The data were fitted to a non-compartment model.

[2] = test system: FOXM1 target genes in DT22 cells; assay: FOXM1 target gene expression by qRT-PCR, DT22; type: cell-based, human; details: DT22, 24 h, at IC50 concentration
From the text: RNA was extracted from cells and expression of different genes was monitored by qRT-PCR. Assays were run in triplicate. Values are mean±SEM. *, p<0.05; **, p<0.01; ***, p<0.001. RNA isolation and real-time PCR Total RNA was isolated using TRIzol (Invitrogen) and reverse transcribed using […] reverse transcriptase (New England BioLabs). […] Relative mRNA levels of genes were normalized to the housekeeping gene 36B4, and fold change calculated relative to the vehicle treated samples. Results are the average±SD from at least two independent experiments carried out in triplicate. Primer sequences for the genes studied were obtained from the Harvard Primer Bank. Sequences are available on their website.

[3] = test system: FOXM1 target genes in MCF7 cells; assay: FOXM1 target gene expression by qRT-PCR, MCF7; type: cell-based, human; details: MCF7, 24 h, at IC50 concentration
Procedure: RNA was extracted from cells and expression of different genes was monitored by qRT-PCR. Assays were run in triplicate. Values are mean±SEM. *, p<0.05; **, p<0.01; ***, p<0.001. RNA isolation and real-time PCR Total RNA was isolated using TRIzol (Invitrogen) and reverse transcribed using […] reverse transcriptase (New England BioLabs). Real-time PCR was performed using SYBRgreen PCR Master Mix (Roche) as described (Bergamaschi et al., Breast Cancer Res., 2014, 16:436). Relative mRNA levels of genes were normalized to the housekeeping gene 36B4, and fold change calculated relative to the vehicle treated samples. Results are the average±SD from at least two independent experiments carried out in triplicate. Primer sequences for the genes studied were obtained from the Harvard Primer Bank. Sequences are available on their website.

[4] = test system: DT22 triple negative human breast tumor xenografts; assay: DT22 triple negative breast tumor xenografts in NSG mice; type: in vivo, mouse; details: for Expression of FOXM1-regulated genes in tumors: q-PCR at end of treatment
Procedure: In vivo breast cancer xenograft studies For examination of the growth of triple-negative DT22 breast tumors, intact female NOD/SCID-gamma (NSG) mice were used. DT-22 cells (1×10^6 cells/mouse) were injected s.c. into the right axial mammary gland. Mice received s.c. injection or oral gavage daily or every second or third day, as indicated, with vehicle or FOXM1 inhibitor compound, and tumor growth was monitored over time.

[5] = test system: tamoxifen-resistant MCF7 breast cancer cells; assay: Proliferation of tamoxifen-resistant MCF7 cells; type: cell-based, human; details: 6 days
Procedure: Values are mean±SD of three separate assays. Cell proliferation assay WST-1 assay (Roche, Basel, Switzerland) was used to quantify cell viability as described (Gong et al., Mol. Cell Endocrinol., 2016, 437:190-200). Absorbance was measured at 450 nm using a VICTOR X5 PerkinElmer 2030 Multilabel Plate Reader. All assays were performed in triplicate.

[6] = test system: FOXM1 cistrome genes in MDA-MB-231 cells; assay: RNA-Seq Gene Set Enrichment Analysis, MDA-MB-231; type: cell-based, human; details: NB-73 […] 24 h, siFOXM1 25 nM 72 h
Procedure: RNA-Seq transcriptional profiling and gene ontology analysis For gene expression analysis, total RNA was extracted from cells using Trizol reagent and further cleaned using the Turbo DNase and RNAqueous kits (ThermoFisher). Cells were treated with Veh (0.1% EtOH), or with the compounds indicated for 9 h or 24 h. Once the sample quality and replicate reproducibility were verified, samples from each group were subjected to sequencing. RNA at a concentration of 100 ng/μL in nuclease-free water was used for library construction. cDNA libraries were prepared with the mRNA-TruSeq Kit (Illumina, Inc.). In brief, the poly-A containing mRNA was purified from total RNA, the RNA was fragmented, double-stranded cDNA was generated from fragmented RNA, and adapters were ligated to the ends.
The paired-end read data from the HiSeq 4000 were processed and analyzed through a series of steps. […] Reads were trimmed of adapters and low expression data using Trimmomatic version 0.38. The star alignment tool version 2.5.3a was used to align the sequenced reads to the GRCh37 human genome from Ensembl. Gene counts were calculated using subread version 1.5.2. […]
Gene Set Enrichment Analysis (GSEA) was used for examination of the genome-wide expression profiles. Overrepresented GO biological processes were determined by the web-based DAVID Bioinformatics Resources database.

Structure (SMILES): O=C(NCCCCCCOc1ccc(C(c2ccc(OCCCCCCN3CCCCCC3)cc2)=C2C3C[C@H]4C[C@@H](C3)C[C@H]2C4)cc1)c1ccc(-c2c3ccc(=O)cc-3oc3cc(O)ccc23)c(C(=O)O)c1 [Fl-NB-72, 5-((6-(4-((L′)-((5r,7r)-adamantan-2-ylidene)(4-((6-(azepan-1-yl)hexyl)oxy)phenyl)methyl)phenoxy)hexyl)carbamoyl)-2-(6-hydroxy-3-oxo-3H-xanthen-9-yl)benzoic acid]
- Kd (FOXM1 protein): 23 nM

Structure (SMILES): C[N+]1(CCCCCCOc2ccc(C(c3ccc(OCCCCCC[N+]4(C)CCCCCC4)cc3)=C3C4C[C@H]5C[C@@H](C4)C[C@H]3C5)cc2)CCCCCC1 [NB-73, 1,1′-((((((5r,7r)-adamantan-2-ylidene)methylene)bis(4,1-phenylene))bis(oxy))bis(hexane-6,1-diyl))bis(1-methylazepan-1-ium) diiodide]
- half-life ([1]; female, CD-1, mouse, plasma, sc): 25 to 40 h
- half-life ([1]; female, CD-1, mouse, plasma, sc, 60 mg/kg): 170 h
- AUC(0-t) ([1]; female, CD-1, mouse, plasma, sc, 60 mg/kg, PK s.c. AUC0-48, mice, 60 mg/kg s.c.): 190 µM·h
- PK p.o. AUC0-48 ([1]; mice, 60 mg/kg p.o.): too low to measure
- Blood levels after oral administration ([1]; mice, oral, doses of FIGS. 6A-6B): very low levels
- Blood levels after s.c. injection ([1]; mice, s.c., doses of FIGS. 6A-6B): very high blood levels
- Expression of ATF3 (gene suppressed by FOXM1) [2]: increased
- Expression of FOXM1 stimulated target genes (FOXM1C, AURKB, CCNB1, PLK1) [2]: significantly reduced
- Expression of ATF3 (gene suppressed by FOXM1) [3]: increased
- Expression of FOXM1 stimulated target genes (FOXM1C, AURKB, CCNB1, PLK1) [3]: significantly reduced
- Growth of DT22 tumor xenografts ([4]; 5 mg/kg s.c. daily, every other day from day 21): reduced tumor growth
- Expression of FOXM1-regulated genes in tumors ([4]; 5 mg/kg s.c.): significant reduction
- Growth of DT22 tumor xenografts ([4]; 10 mg/kg s.c. daily, every other day from day 21): even more markedly suppressed growth
- Expression of FOXM1-regulated genes in tumors ([4]; 10 mg/kg s.c.): greatly reduced
- Tumor growth in vivo, low doses ([4]; 5 or 10 mg/kg s.c. every second or third day): greatly suppress tumor growth
- Growth of DT22 tumor xenografts ([4]; s.c., 20 mg/kg every other day for first 10 days then 10 mg/kg every other day): greatly suppress tumor growth
- Effect on proliferation of tamoxifen-resistant MCF7 cells [5]: effectively suppressed
- GSEA enrichment against FOXM1 target gene sets [6]: negative enrichment scores
